ChEMBL document CHEMBL4507315 (2021)

Tests used:
[1] = molecular target: Serine/threonine-protein kinase MRCK alpha (Homo sapiens) (UniProt Q5VT25); conditions: Compound concentration 100.0 nM
[2] = molecular target: Serine/threonine-protein kinase WNK1 (Homo sapiens) (UniProt Q9H4A3); conditions: Compound concentration 100.0 nM
[3] = test system: Receptor-type tyrosine-protein kinase FLT3 (Homo sapiens), P36888 [D835H]; conditions: Compound concentration 100.0 nM
[4] = molecular target: Cyclin-dependent kinase 15 (Homo sapiens) (UniProt Q96Q40); conditions: Compound concentration 100.0 nM
[5] = molecular target: Serine/threonine-protein kinase tousled-like 1 (Homo sapiens) (UniProt Q9UKI8); conditions: Compound concentration 100.0 nM
[6] = molecular target: RAC-beta serine/threonine-protein kinase (Homo sapiens) (UniProt P31751); conditions: Compound concentration 100.0 nM
[7] = molecular target: Tyrosine-protein kinase ABL1 (Homo sapiens) (UniProt P00519); conditions: Compound concentration 100.0 nM
[8] = molecular target: Receptor tyrosine-protein kinase erbB-4 (Homo sapiens) (UniProt Q15303); conditions: Compound concentration 100.0 nM
Receptor tyrosine-protein kinase erbB-4 (Homo sapiens), sequence (Q15303 whole entry): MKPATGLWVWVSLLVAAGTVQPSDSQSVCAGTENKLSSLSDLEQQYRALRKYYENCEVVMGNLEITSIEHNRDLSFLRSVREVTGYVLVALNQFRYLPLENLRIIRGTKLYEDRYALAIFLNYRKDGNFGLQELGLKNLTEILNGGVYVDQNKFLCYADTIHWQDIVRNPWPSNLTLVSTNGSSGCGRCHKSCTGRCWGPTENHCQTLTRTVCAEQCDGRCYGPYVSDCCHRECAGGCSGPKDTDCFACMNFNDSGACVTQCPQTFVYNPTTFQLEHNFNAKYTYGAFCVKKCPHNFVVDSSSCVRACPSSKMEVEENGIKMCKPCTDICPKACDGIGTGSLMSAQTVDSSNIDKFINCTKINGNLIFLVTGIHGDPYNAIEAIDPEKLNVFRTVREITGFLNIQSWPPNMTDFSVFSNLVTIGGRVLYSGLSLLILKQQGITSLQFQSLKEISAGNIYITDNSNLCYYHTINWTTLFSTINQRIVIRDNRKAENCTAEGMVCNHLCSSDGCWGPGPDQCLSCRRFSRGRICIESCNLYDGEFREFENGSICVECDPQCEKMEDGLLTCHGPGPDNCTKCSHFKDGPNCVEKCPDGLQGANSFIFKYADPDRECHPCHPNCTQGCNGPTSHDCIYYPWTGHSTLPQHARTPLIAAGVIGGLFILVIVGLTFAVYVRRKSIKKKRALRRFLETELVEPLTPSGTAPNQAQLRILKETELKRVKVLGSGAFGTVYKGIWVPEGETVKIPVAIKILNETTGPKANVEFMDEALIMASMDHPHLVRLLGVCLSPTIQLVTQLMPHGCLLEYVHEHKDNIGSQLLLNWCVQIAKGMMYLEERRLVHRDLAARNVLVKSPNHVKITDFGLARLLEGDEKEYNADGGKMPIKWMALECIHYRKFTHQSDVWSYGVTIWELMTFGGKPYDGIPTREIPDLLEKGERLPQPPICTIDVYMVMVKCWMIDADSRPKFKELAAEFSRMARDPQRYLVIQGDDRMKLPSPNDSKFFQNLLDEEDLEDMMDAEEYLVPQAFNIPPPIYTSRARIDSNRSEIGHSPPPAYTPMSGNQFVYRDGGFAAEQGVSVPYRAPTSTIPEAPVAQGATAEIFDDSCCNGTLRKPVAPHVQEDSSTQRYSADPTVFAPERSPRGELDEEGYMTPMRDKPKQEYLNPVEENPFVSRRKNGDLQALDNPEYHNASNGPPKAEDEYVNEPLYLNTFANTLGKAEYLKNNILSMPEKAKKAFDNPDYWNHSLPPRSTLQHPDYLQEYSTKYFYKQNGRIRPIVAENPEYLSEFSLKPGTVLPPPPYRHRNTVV

[9] = molecular target: Tyrosine-protein kinase Fyn (Homo sapiens) (UniProt P06241); conditions: Compound concentration 100.0 nM
[10] = molecular target: SRSF protein kinase 1 (Homo sapiens) (UniProt Q96SB4); conditions: Compound concentration 100.0 nM
[11] = molecular target: Serine/threonine-protein kinase PAK 5 (Homo sapiens) (UniProt Q9P286); conditions: Compound concentration 100.0 nM
[12] = molecular target: Phosphatidylinositol 4-phosphate 3-kinase C2 domain-containing subunit beta (Homo sapiens) (UniProt O00750); conditions: Compound concentration 100.0 nM
[13] = molecular target: Serine/threonine-protein kinase SIK2 (Homo sapiens) (UniProt Q9H0K1); conditions: Compound concentration 100.0 nM
[14] = molecular target: STE20/SPS1-related proline-alanine-rich protein kinase (Homo sapiens) (UniProt Q9UEW8); conditions: Compound concentration 100.0 nM
[15] = molecular target: Mitogen-activated protein kinase 1 (Homo sapiens) (UniProt P28482); conditions: Compound concentration 100.0 nM
[16] = molecular target: MAP kinase-interacting serine/threonine-protein kinase 2 (Homo sapiens) (UniProt Q9HBH9); conditions: Compound concentration 100.0 nM
MAP kinase-interacting serine/threonine-protein kinase 2 (Homo sapiens), sequence (Q9HBH9 whole entry, looked up): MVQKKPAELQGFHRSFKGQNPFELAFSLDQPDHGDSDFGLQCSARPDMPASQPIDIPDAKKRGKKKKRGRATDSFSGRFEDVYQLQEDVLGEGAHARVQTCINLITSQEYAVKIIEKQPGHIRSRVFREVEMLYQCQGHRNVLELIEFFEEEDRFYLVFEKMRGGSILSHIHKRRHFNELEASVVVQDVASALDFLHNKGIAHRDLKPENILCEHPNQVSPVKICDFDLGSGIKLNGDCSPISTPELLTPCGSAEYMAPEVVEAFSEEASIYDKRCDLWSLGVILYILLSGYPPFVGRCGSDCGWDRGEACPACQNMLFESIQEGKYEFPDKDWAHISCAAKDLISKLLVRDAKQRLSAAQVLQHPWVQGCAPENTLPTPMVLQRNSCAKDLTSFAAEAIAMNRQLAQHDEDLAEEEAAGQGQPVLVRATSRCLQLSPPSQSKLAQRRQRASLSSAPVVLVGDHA

[17] = molecular target: Interferon-induced, double-stranded RNA-activated protein kinase (Homo sapiens) (UniProt P19525); conditions: Compound concentration 100.0 nM
[18] = molecular target: Mitogen-activated protein kinase kinase kinase 5 (Homo sapiens) (UniProt Q99683); conditions: Compound concentration 100.0 nM
[19] = molecular target: 5-hydroxytryptamine receptor 3A (Homo sapiens) (UniProt P46098); conditions: Compound concentration 10.0 uM
[20] = molecular target: High affinity nerve growth factor receptor (Homo sapiens) (UniProt P04629); conditions: Compound concentration 100.0 nM
[21] = molecular target: Bone morphogenetic protein receptor type-1A (Homo sapiens) (UniProt P36894); conditions: Compound concentration 100.0 nM
[22] = molecular target: Serine/threonine-protein kinase PLK3 (Homo sapiens) (UniProt Q9H4B4); conditions: Compound concentration 100.0 nM
[23] = molecular target: Serine/threonine-protein kinase 24 (Homo sapiens) (UniProt Q9Y6E0); conditions: Compound concentration 100.0 nM
[24] = molecular target: Calcium/calmodulin-dependent protein kinase kinase 2 (Homo sapiens) (UniProt Q96RR4); conditions: Compound concentration 100.0 nM
[25] = molecular target: Serine/threonine-protein kinase Nek2 (Homo sapiens) (UniProt P51955); conditions: Compound concentration 100.0 nM
[26] = molecular target: Serine/threonine-protein kinase pim-3 (Homo sapiens) (UniProt Q86V86); conditions: Compound concentration 100.0 nM
[27] = molecular target: Ephrin type-A receptor 2 (Homo sapiens) (UniProt P29317); conditions: Compound concentration 100.0 nM
[28] = molecular target: Serine/threonine-protein kinase PAK 2 (Homo sapiens) (UniProt Q13177); conditions: Compound concentration 100.0 nM
[29] = molecular target: Mitogen-activated protein kinase 8 (Homo sapiens) (UniProt P45983); conditions: Compound concentration 100.0 nM
[30] = molecular target: Serine/threonine-protein kinase PLK4 (Homo sapiens) (UniProt O00444); conditions: Compound concentration 100.0 nM
[31] = molecular target: Tyrosine-protein kinase Srms (Homo sapiens) (UniProt Q9H3Y6); conditions: Compound concentration 100.0 nM
[32] = test system: Phosphatidylinositol 4,5-bisphosphate 3-kinase catalytic subunit alpha isoform (Homo sapiens), P42336 [H1047Y]; conditions: Compound concentration 100.0 nM
Phosphatidylinositol 4,5-bisphosphate 3-kinase catalytic subunit alpha isoform (Homo sapiens), P42336 [H1047Y], sequence (P42336 whole entry H1047Y, canonical isoform): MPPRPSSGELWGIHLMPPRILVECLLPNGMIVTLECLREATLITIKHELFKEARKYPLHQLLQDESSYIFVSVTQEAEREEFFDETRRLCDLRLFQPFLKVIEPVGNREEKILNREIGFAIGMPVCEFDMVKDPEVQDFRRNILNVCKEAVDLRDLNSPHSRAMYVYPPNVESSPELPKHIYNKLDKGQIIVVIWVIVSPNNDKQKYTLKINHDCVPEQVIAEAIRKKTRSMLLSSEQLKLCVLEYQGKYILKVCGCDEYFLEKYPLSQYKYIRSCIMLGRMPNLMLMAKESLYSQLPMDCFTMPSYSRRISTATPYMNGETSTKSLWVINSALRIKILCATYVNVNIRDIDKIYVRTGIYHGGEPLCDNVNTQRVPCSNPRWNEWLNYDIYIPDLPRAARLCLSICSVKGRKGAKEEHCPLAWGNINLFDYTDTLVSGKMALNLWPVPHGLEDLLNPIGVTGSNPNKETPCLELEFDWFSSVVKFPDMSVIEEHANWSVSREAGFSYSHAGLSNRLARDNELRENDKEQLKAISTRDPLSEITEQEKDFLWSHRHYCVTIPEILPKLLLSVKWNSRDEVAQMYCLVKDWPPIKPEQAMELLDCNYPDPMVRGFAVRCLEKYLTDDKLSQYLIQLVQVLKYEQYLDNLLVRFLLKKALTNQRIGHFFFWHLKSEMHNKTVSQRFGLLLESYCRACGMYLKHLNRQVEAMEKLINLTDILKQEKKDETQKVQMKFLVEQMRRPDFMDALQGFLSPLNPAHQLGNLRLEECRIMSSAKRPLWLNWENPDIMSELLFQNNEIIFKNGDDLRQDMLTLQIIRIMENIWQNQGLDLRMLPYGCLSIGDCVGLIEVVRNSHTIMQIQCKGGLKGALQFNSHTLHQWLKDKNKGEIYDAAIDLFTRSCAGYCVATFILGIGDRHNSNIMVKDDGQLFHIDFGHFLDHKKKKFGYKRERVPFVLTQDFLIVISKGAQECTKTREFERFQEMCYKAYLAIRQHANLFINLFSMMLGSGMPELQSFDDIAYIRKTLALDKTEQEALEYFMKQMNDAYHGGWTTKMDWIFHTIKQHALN

[33] = molecular target: Cyclin-dependent kinase 4 (Homo sapiens) (UniProt P11802); conditions: Compound concentration 100.0 nM
Cyclin-dependent kinase 4 (Homo sapiens), sequence (P11802 whole entry): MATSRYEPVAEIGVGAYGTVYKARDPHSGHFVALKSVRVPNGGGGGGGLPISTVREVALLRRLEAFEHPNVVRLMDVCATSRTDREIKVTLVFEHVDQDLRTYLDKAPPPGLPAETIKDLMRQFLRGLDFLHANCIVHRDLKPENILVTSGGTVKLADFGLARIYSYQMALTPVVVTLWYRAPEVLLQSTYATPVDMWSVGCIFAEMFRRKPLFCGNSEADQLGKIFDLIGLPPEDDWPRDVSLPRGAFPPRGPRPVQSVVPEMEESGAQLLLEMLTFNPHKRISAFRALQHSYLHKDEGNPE

[34] = molecular target: 5-hydroxytryptamine receptor 5A (Homo sapiens) (UniProt P47898); conditions: Compound concentration 10.0 uM
[35] = molecular target: Cyclin-dependent kinase 9 (Homo sapiens) (UniProt P50750); conditions: Compound concentration 100.0 nM
[36] = molecular target: Cyclin-dependent kinase 4 (Homo sapiens) (UniProt P11802); conditions: Compound concentration 100.0 nM; remark: listed apart in the source
[37] = test system: Tyrosine-protein kinase ABL1 (Homo sapiens), P00519 [Y253F]; conditions: Compound concentration 100.0 nM
[38] = molecular target: 5-hydroxytryptamine receptor 1D (Homo sapiens) (UniProt P28221); conditions: Compound concentration 10.0 uM
[39] = molecular target: Calcium/calmodulin-dependent protein kinase type II subunit delta (Homo sapiens) (UniProt Q13557); conditions: Compound concentration 100.0 nM
[40] = molecular target: RAC-gamma serine/threonine-protein kinase (Homo sapiens) (UniProt Q9Y243); conditions: Compound concentration 100.0 nM
RAC-gamma serine/threonine-protein kinase (Homo sapiens), sequence (Q9Y243 whole entry): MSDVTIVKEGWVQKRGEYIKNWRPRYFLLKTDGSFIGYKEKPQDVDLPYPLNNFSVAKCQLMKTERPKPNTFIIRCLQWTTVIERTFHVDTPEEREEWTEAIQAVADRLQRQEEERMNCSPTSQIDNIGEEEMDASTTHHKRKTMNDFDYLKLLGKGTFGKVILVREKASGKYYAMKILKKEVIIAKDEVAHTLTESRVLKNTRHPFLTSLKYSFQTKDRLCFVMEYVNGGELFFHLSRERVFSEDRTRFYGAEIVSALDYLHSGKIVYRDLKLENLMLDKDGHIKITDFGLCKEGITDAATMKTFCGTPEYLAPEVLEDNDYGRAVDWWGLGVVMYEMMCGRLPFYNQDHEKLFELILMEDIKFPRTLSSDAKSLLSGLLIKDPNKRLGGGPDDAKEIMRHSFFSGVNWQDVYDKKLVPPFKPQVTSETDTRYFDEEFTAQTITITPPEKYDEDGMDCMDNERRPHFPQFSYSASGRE

[41] = molecular target: Activin receptor type-2B (Homo sapiens) (UniProt Q13705); conditions: Compound concentration 100.0 nM
Activin receptor type-2B (Homo sapiens), sequence (Q13705 whole entry): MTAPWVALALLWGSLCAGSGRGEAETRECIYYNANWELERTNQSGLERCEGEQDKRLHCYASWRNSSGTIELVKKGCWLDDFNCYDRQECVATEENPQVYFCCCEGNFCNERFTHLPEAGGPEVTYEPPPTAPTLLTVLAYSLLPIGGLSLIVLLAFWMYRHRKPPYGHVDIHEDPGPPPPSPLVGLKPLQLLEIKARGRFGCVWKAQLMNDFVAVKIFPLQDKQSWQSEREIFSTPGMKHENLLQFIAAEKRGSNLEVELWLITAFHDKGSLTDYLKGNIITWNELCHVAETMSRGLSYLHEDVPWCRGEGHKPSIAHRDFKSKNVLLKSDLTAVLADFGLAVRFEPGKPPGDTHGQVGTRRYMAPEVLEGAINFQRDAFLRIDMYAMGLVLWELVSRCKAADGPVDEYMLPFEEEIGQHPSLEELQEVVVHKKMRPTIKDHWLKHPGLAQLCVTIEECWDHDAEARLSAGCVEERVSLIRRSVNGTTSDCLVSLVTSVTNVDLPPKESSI

[42] = molecular target: Serine/threonine-protein kinase Nek4 (Homo sapiens) (UniProt P51957); conditions: Compound concentration 100.0 nM
Serine/threonine-protein kinase Nek4 (Homo sapiens), sequence (P51957 whole entry, looked up): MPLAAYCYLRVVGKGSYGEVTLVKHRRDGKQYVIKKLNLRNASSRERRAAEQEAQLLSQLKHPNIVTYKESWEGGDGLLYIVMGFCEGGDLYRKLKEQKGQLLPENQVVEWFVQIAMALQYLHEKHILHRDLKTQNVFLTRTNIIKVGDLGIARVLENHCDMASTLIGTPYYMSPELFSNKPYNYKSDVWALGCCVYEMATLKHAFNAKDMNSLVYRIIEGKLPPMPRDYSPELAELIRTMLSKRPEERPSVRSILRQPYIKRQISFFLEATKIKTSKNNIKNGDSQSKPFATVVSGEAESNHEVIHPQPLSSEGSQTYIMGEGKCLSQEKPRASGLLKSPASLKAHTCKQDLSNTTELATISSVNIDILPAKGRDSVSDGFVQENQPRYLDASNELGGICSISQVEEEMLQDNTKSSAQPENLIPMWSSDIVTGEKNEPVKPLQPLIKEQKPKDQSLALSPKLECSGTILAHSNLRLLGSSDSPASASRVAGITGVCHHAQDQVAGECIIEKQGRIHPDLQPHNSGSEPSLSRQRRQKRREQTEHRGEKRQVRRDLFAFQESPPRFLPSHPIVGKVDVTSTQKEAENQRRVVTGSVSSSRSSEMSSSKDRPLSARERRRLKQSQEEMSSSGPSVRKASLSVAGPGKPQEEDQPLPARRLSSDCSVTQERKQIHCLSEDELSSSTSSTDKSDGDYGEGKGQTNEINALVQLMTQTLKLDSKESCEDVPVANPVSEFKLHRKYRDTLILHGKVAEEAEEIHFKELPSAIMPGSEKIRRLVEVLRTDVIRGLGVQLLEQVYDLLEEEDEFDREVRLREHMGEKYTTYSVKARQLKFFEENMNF

[43] = molecular target: Cyclin-dependent kinase 11A (Homo sapiens) (UniProt Q9UQ88); conditions: Compound concentration 100.0 nM
[44] = molecular target: Discoidin domain-containing receptor 2 (Homo sapiens) (UniProt Q16832); conditions: Compound concentration 100.0 nM
[45] = molecular target: Serine/threonine-protein kinase haspin (Homo sapiens) (UniProt Q8TF76); conditions: Compound concentration 100.0 nM

O=C(NCCCC1CCCCC1)c1ccc(CNC(=O)c2cnn(-c3ccccc3)c2C(F)(F)F)cc1 [SR-321]
inactive: residual activity [1] 100% | residual activity [2] 100% | residual activity [3] 100% | residual activity [4] 77% | residual activity [5] 100% | residual activity [6] 100% | residual activity [7] 93% | residual activity [8] 100% | residual activity [9] 86% | residual activity [10] 95% | residual activity [11] 100% | residual activity [12] 86% | residual activity [13] 100% | residual activity [14] 100% | residual activity [15] 93% | residual activity [16] 100% | residual activity [17] 64% | residual activity [18] 91% | inhibition [19] 5.72% | residual activity [20] 100% | residual activity [21] 100% | residual activity [22] 100% | residual activity [23] 100% | residual activity [24] 100% | residual activity [25] 100% | residual activity [26] 100% | residual activity [27] 80% | residual activity [28] 100% | residual activity [29] 99% | residual activity [30] 96% | residual activity [31] 93% | residual activity [32] 100% | residual activity [33] 100% | inhibition [34] 17% | residual activity [35] 100% | residual activity [36] 96% | residual activity [37] 98% | inhibition [38] -8.35% | residual activity [39] 100% | residual activity [40] 97% | residual activity [41] 96% | residual activity [42] 100% | residual activity [43] 100% | residual activity [44] 100% | residual activity [45] 100%

Nc1c(C(=O)NCc2ccc(C(=O)NCCCC3CCCCC3)cc2)cnn1-c1ccccc1 [SR-318]
inactive: residual activity [1] 100% | residual activity [2] 100% | residual activity [3] 100% | residual activity [4] 95% | residual activity [5] 77% | residual activity [6] 96% | residual activity [7] 81% | residual activity [8] 89% | residual activity [9] 100% | residual activity [10] 90% | residual activity [11] 100% | residual activity [12] 99% | residual activity [13] 100% | residual activity [14] 96% | residual activity [15] 100% | residual activity [16] 100% | residual activity [17] 54% | residual activity [18] 81% | inhibition [19] -0.42% | residual activity [20] 100% | residual activity [21] 100% | residual activity [22] 100% | residual activity [23] 91% | residual activity [24] 100% | residual activity [25] 100% | residual activity [26] 91% | residual activity [27] 100% | residual activity [28] 66% | residual activity [29] 100% | residual activity [30] 100% | residual activity [31] 100% | residual activity [32] 77% | residual activity [33] 100% | inhibition [34] 9.6% | residual activity [35] 100% | residual activity [36] 100% | residual activity [37] 100% | inhibition [38] 27.6% | residual activity [39] 100% | residual activity [40] 78% | residual activity [41] 100% | residual activity [42] 100% | residual activity [43] 100% | residual activity [44] 56% | residual activity [45] 100%
